Test results as given in article PMC3396293 (Bioorganic & medicinal chemistry, 2011).
Where a name gives a salt, the structure may show the parent alone.

Legend:
Assay type in all cases: biochemical
steroid sulfatase (STS) = target: T1, steroid sulfatase (STS) (Homo sapiens, UniProt P08842); assay: 3H-DHEA scintillation counting; conditions: labelled compound; 5 µM DHEAS, pH 7.4, 37 °C
T1 sequence (P08842 22-583): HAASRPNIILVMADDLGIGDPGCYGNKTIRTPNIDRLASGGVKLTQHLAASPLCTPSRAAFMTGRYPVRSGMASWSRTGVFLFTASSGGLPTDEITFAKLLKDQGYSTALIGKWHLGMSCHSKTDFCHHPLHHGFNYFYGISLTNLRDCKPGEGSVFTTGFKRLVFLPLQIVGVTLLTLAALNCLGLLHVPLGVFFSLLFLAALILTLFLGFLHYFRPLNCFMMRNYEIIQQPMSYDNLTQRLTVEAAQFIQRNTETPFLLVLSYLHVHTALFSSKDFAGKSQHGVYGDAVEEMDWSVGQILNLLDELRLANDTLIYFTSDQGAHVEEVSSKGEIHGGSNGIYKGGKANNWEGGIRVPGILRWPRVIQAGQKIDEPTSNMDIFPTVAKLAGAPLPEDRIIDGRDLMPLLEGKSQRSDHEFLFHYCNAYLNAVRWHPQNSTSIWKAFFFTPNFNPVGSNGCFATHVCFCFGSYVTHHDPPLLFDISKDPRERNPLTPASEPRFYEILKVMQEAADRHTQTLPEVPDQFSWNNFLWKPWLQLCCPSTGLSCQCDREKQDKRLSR

PARS = PARS (Pseudomonas aeruginosa, UniProt P51691); assay: colorimetric assay, […] nm; conditions: 8 mM pNCS, pH 8.5, room temperature
aryl sulfatase G (ARSG) = target: T2, aryl sulfatase G (ARSG) (Homo sapiens, UniProt Q96EG1); assay: colorimetric assay, […] nm; conditions: 8 mM pNCS, 0.5 M NaOAc, pH 5.6, 37 °C
T2 sequence (Q96EG1 17-525): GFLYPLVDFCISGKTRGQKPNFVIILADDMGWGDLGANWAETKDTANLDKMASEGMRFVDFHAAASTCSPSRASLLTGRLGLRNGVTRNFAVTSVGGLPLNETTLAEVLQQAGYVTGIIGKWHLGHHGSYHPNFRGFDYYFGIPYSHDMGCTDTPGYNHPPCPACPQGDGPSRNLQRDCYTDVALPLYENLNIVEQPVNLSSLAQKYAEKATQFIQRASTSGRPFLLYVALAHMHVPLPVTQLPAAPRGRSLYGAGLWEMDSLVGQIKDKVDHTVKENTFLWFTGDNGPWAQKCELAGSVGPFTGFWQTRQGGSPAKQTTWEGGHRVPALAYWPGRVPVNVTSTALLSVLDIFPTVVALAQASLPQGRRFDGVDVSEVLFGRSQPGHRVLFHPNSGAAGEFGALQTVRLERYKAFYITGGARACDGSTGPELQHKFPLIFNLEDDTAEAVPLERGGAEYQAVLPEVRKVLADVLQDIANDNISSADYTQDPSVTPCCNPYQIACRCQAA

KARS = target: T3, KARS (Klebsiella pneumoniae, UniProt Q9X759); assay: colorimetric assay, […] nm; conditions: 8 mM pNCS, pH 7.5, room temperature
T3 sequence (Q9X759 21-577): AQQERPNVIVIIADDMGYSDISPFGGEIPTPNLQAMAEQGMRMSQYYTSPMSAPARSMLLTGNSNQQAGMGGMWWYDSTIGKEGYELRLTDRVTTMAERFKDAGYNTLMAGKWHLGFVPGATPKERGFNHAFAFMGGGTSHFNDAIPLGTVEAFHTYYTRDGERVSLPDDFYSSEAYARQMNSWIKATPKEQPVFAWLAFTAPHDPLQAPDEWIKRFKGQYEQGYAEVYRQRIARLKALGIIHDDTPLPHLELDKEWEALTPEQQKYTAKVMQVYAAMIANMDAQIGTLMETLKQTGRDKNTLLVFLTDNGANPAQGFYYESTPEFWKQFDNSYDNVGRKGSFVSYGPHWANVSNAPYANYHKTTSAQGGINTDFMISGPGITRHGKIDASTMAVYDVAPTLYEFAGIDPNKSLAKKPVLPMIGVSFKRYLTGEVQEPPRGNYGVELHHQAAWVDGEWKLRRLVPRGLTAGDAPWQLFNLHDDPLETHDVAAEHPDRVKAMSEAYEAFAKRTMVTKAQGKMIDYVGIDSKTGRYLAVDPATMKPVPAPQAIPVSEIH

Sequence of PARS (P51691 2-536): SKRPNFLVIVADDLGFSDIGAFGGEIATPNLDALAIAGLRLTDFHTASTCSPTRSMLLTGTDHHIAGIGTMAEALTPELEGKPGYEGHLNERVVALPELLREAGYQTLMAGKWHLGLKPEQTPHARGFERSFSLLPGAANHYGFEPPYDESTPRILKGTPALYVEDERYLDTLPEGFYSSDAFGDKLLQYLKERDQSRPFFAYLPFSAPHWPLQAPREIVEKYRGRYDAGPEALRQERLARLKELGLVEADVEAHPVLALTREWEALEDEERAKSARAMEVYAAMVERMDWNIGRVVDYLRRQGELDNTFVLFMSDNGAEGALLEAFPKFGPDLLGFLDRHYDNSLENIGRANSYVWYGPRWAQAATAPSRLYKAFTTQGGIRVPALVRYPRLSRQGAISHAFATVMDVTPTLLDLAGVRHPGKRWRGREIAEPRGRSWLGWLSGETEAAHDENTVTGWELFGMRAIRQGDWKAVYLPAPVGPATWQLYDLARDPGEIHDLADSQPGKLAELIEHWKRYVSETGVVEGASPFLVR

Structure (SMILES)	3H-DHEA scintillation counting (steroid sulfatase (STS))	colorimetric assay, 515 nm (PARS)	colorimetric assay, 515 nm (aryl sulfatase G (ARSG))	colorimetric assay, 515 nm (KARS)
C[C@]12CC[C@H](OS(=O)(=O)O)CC1=CC[C@@H]1[C@@H]2CC[C@]2(C)C(=O)CC[C@@H]12 [dehydroepiandrosterone-3-sulfate]	STS activity was determined using a radioactive dehydroepiandrosterone-3-sulfate (^3DHEAS) assay			
O=[N+]([O-])c1ccc(O)c(OS(=O)(=O)O)c1 [para-nitrocatechol sulfate]		KARS, PARS and ARSG activities were monitored using a para-nitrocatechol sulfate (pNCS) colorimetric assay	KARS, PARS and ARSG activities were monitored using a para-nitrocatechol sulfate (pNCS) colorimetric assay	KARS, PARS and ARSG activities were monitored using a para-nitrocatechol sulfate (pNCS) colorimetric assay
